Experimental data taken from patent US11160808B2, “Compounds that enhance Atoh1 expression” (Massachusetts Eye & Ear Infirmary, priority 2008, dated 2021).

What was measured:
[1] = LD50 (median lethal dose) determination; format: cell-based
Description: IC50 is a measure of the effectiveness of a compound in inhibiting biological or biochemical function. LD50 is the amount of a compound required to kill half the members of a tested population.

[2] = test system: Math1 enhancer and minimal promoter Luciferase reporter in HEK cells; assay: Math1 Luciferase reporter assay in HEK cells; format: cell-based, human; conditions: for IC50 / maximal fold induction: Homo sapiens, HEK293; for IC50: read-out: IC50; for maximal fold induction: read-out: Maximum (Fold DMSO)
Description: A human embryonic kidney (HEK) cell line stably expressing a Luciferase gene controlled by an Math1 enhancer and minimal promoter was used in a high-throughput screen (HTS) of 144,000 small molecules to identify compounds that increase Math1 expression (i.e., transcription and/or translation). Such compounds can be used to increase the conversion of stem cells, progenitor cells, and support cells to or towards a hair cell. Screens to identify such compounds are described by Li et al., (U.S. Publication No. 2005/0287127) and Li et al., (U.S. application Ser. No. 11/953,797).
HEK cells stably expressing the Math1 Luciferase reporter were plated onto 384 well plates and cultured overnight in medium containing 10% fetal calf serum (FCS). Activation of the Math1 enhancer was measured by the increase in luminescence on a plate reader following addition of a luciferase detection agent. The assay was optimized for cell number, time of incubation, volume of medium, cell lysis reagent and luciferase reagent. Luminescence levels were compared in cells with the Math1-luciferase construct with and without retinoic acid (1 μM), and/or a luciferase construct with and without the Math1 enhancer and minimal promoter region.
To improve assay sensitivity, and reduce the coefficient of variation (CV), a more sensitive luciferase reagent (BriteLite luciferase reporter assay reagent, Perkin Elmer) was used, and Triton-X-100 was added to the lysis reagent to ensure complete lysis of the cells. Following these changes a CV of 4.2% was recorded. These conditions were used for all high-throughput screens. The luminescence threshold for a compound to be positive was defined as a 2-fold increase above the control (e.g., cells exposed to DMSO).
Cells were seeded on 384 well plates and allowed to attach overnight at 37° C. with 5% CO2 in the absence of growth factors. Math1 activation was measured by the increase in luminescence on a plate reader following addition of a luciferase detection reagent. Luminescence was assessed at 24, 48, and 72 hours. These conditions were used to screen 144,000 compounds contained in the small molecule libraries at Harvard University's Laboratory for Drug Discovery in Neurodegeneration (LDDN).
HTS were performed using HEK-Math1 cells seeded in 384 well plates. One compound was added per well using pin transfer. The final concentration of each compound was […]. Cell were incubated in the presence of a compound for 48 hours at 37° C. with 5% CO2. Cell lysates then were collected and bioluminescence determined. Luminescence values were compared normalized against DMSO.
About 20000 compounds were screened per week in 50 plates of 384 well with the aid of robotic systems (Beckman Biomek FX). Compounds were screened at an average final concentration of 0.7 μM (in 0.04% DMSO) with each plate containing 16 wells of 1 μM retinoic acid, as a positive control, and 16 wells of 0.04% DMSO, as a vehicle control. Percent activation of luminescence in the test compounds was determined for cells treated with the compounds against cells treated with DMSO.
Ten compounds, randomly selected from the group of 110 compounds identified in Example 2, were further evaluated, as follows. HEK cells were plated on 96 well plates at a density of 100000 cells per well. One day after plating, 0.1, 1, and 5 μM of each positive compound was added per well in a 10% fetal bovine serum (FBS) DMEM solution. Cells were then lysed 48 hours after addition of the compound and Math1 expression was analyzed using a luciferase reporter assay, as described above, and real-time PCR.
The half maximal inhibitory concentration (IC50) and median lethal dose or Lethal Dose, 50% (LD50) were determined for each of the compounds identified in Example 2 using standard laboratory techniques. IC50 is a measure of the effectiveness of a compound in inhibiting biological or biochemical function. LD50 is the amount of a compound required to kill half the members of a tested population.

SMILES	LD50 [1] [µM]	IC50 [2] [nM]	maximal fold induction [2]	increase in luciferase activity ([2]; 1 μM, compared to non-treated cells) [fold]
COc1ccc(-c2nc3ccc(Cl)cc3n2OCc2cc(C)cc(C)c2)cc1 [CP-0000554, 6-chloro-1-(3,5-dimethylbenzyloxy)-2-(4-methoxyphenyl)-1H-benzo[d]imidazole]	>30	400	2	–
O=C(NCCSc1ccccc1)c1cncc(Br)c1 [CP-0089966, 5-bromo-N-(2-(phenylthio)ethyl) nicotinamide]	>10	> 10000	2.2	–
Cc1cc(C(=O)Nc2ccccc2)c(C)n1Cc1cccs1 [CP-0104766, 2,5-dimethyl-N-phenyl-1-(thiophen-2-ylmethyl)-1H-pyrrole-3-carboxamide]	>10	3000	3	–
c1ccc(OCc2nc(-c3ccccn3)no2)cc1 [CP-0068395, 5-(phenoxymethyl)-3-(pyridin-2-yl)-1,2,4-oxadiazole]	>10	3000	1.6	–
Cc1ccc(-c2nc(-c3cccnc3)no2)c(Cl)c1 [CP-0068929, 5-(2-chloro-4-methylphenyl)-3-(pyridin-3-yl)-1,2,4-oxadiazole]	>10	400	2	–
COc1ccc(-c2ccc3c(n2)CCCN3)cc1 [CP-0080276, 6-(4-methoxyphenyl)-1,2,3,4-tetrahydro-1,5-naphthyridine]	>10	300	2	–
O=C(c1cc(-c2ccc(Br)cc2)on1)N1CCOCC1 [CP-0075627, (5-(4-bromophenyl)isoxazol-3-yl)(morpholino)methanone]	>10	8000	2	–
Nc1nn(-c2ncnc3c2[nH]c2ccccc23)cc1-c1ccc(Cl)cc1 [CP-0000477, 4-(4-chlorophenyl)-1-(5H-pyrimido[5,4-b]indol-4-yl)-1H-pyrazol-3-amine]	>30	2000	2	–
O=c1ccc2ccc(OCc3ccc(F)cc3)cc2o1 [CP-0063508, 7-(4-fluorobenzyloxy)-2H-chromen-2-one]	>10	> 10000	1.7	–
Cc1cccc(Nc2nc(N)c(C(=O)C(C)C)s2)c1 [CP-0134381, 1-(4-amino-2-(m-tolylamino)thiazol-5-yl)-2-methylpropan-1-one]	>10	2000	2.2	–
NC(=O)c1sc2nc3c(cc2c1N)CCCCC3 [CP-0066751, 3-amino-6,7,8,9-tetrahydro-5H-cyclohepta[e]thieno[2,3-b]pyridine-2-carboxamide]	>10	1000	1.9	–
CS(=O)(=O)n1nccc1-c1ccc(-c2ccc(F)cc2F)o1 [CP-0099289, 5-(5-(2,4-difluorophenyl)furan-2-yl)-1-(methylsulfonyl)-1H-pyrazole]	>10	> 10000	1.6	–
COc1ccc(C2=NN3C(C2)c2cccc(OC)c2OC32CCCCC2)cc1 (stereo not shown) [CP-0039073, 7-methoxy-2-(4-methoxyphenyl)-1,10b-dihydrospiro[benzo[e]pyra-zolo[1,5-c][1,3]oxazine-5,1′-cyclohexane]]	>10	1500	2.4	–
NC(=O)c1c(NC(=O)c2cc3ccccc3o2)sc2c1CCC2 [CP-0087336, N-(3-carbamoyl-5,6-dihydro-4H-cyclopenta[b]thiophen-2-yl)benzofuran-2-carboxamide]	>10	80	2.2	–
Cc1ccc2nc(-c3cc4ccccc4oc3=N)[nH]c2c1 [CP-0091818, 3-(6-methyl-1H-benzo[d]imidazol-2-yl)-2H-chromen-2-imine]	>10	900	2.1	–
Cc1cccc(-c2ccc3ccccc3n2)c1 [CP-0072092, 2-m-tolylquinoline]	>10	1000	1.7	–
Fc1ccc(-c2cnc(N3CCOCC3)nc2)cc1 [CP-0059642, 4-(5-(4-fluorophenyl)pyrimidin-2-yl)morpholine]	>10	1000	2.2	–
Cn1c(CCc2ccc(N)cc2)nc2ccccc21 [CP-0066829, 4-(2-(1-methyl-1H-benzo[d]imidazol-2-yl)ethyl)aniline]	>10	1000	1.8	–
Brc1ccc(-c2nc(-c3cccnc3)no2)cc1 [CP-0070367, 5-(4-bromophenyl)-3-(pyridin-3-yl)-1,2,4-oxadiazole]	>10	2000	1.7	–
Cc1ccccc1OCc1nc2ccccc2[nH]1 [CP-0109953, 2-(o-tolyloxymethyl)-1H-benzo[d]imidazole]	>10	100	1.8	–
COc1ccc(-c2cc(-c3ccccc3)[nH]n2)c(O)c1 [CP-0064231, 5-methoxy-2-(5-phenyl-1H-pyrazol-3-yl)phenol]	>10	1000	1.5	–
Cc1cccc(/C(N)=N/OC(=O)c2cccnc2)c1 [CP-0069934, (Z)-3-methyl-N′-(nicotinoyloxy) benzimidamide]	>10	2000	1.7	–
Cc1ccc(CSc2nc3ncccc3o2)cc1 [CP-0130586, 2-(4-methylbenzylthio) oxazolo[4,5-b]pyridine]	>10	500	2.2	–
CC(=O)Nc1cc(-c2sc3ccc(Cl)cc3c2C)n[nH]1 [CP-0102404, N-(3-(5-chloro-3-methylbenzo[b]thiophen-2-yl)-1H-pyrazol-5-yl)acetamide]	>10	> 10000	1.6	–
COc1ccc(OCC(=O)Nc2nccs2)cc1 [CP-0063182, 2-(4-methoxyphenoxy)-N-(thiazol-2-yl)acetamide]	>10	200	1.7	–
COc1ccc(-c2csc(Nc3ncccc3C)n2)cc1 [CP-0071862, 4-(4-methoxyphenyl)-N-(3-methylpyridin-2-yl)thiazol-2-amine]	>10	700	1.8	–
O=C(Nc1ccccc1Cl)C(=O)c1c[nH]c2ccccc12 [CP-0078448, N-(2-chlorophenyl)-2-(1H-indol-3-yl)-2-oxoacetamide]	>10	> 10000	1.9	–
CC(C)Oc1ccc(C(=O)Nc2sccc2C#N)cc1 [CP-0110352, N-(3-cyanothiophen-2-yl)-4-isopropoxybenzamide]	>10	50	1.8	–
O=C(NCCOc1ccc(F)cc1)c1cccs1 [CP-0072271, N-(2-(4-fluorophenoxy)ethyl)thio-phene-2-carboxamide]	>10	1000	2.2	–
CC1=C(/C=C/C(C)=C/C=C/C(C)=C/C(=O)O)C(C)(C)CCC1 [retinoic acid, reference compound]	–	–	–	1.8
